Common to all, as to format: in vivo
Test [1] deals with ryegrass, Italian (Italian ryegrass, Lolium multiflorum). Briefly: Test A preemergence. The note with it: Lolium multiflorum, pre-emergence, 240 h; for pest or weed control at 125 g/ha: 125 g ai/ha, Preemergence, visual injury rating after approximately 10 d, read-out: Ryegrass, Italian plant response rating (0 to 100 scale, 0 is no effect, 100 is complete control); for pest or weed control at 500 g/ha: 500 g ai/ha, preemergence, visual injury rating about 10 d after treatment, 0 to 100 scale (0 no effect, 100 complete control), read-out: Ryegrass, Italian plant response rating. Summed up:
(§1)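 Preemergence soil spray on seeded pots or post-emergence spray on 1–2 leaf plants, in loam–sand blend. Greenhouse ~10 d. Visual rating 0–100 against untreated plants.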

Test [2] relates to barnyardgrass (Echinochloa crus-galli). Briefly: Test A preemergence. The note with it: Echinochloa crus-galli, pre-emergence, 240 h; for pest or weed control at 125 g/ha: 125 g ai/ha, Preemergence, visual injury rating after approximately 10 d, read-out: Barnyardgrass plant response rating (0 to 100 scale, 0 is no effect, 100 is complete control); for pest or weed control at 500 g/ha: 500 g ai/ha, preemergence, visual injury rating about 10 d after treatment, 0 to 100 scale (0 no effect, 100 complete control), read-out: Barnyardgrass plant response rating. Summed up:
as §1

Test [3] concerns giant foxtail (Setaria faberii). In words: Test A preemergence. The following applies: Setaria faberi, pre-emergence, 240 h; for pest or weed control at 125 g/ha: 125 g ai/ha, Preemergence, visual injury rating after approximately 10 d, read-out: Foxtail, Giant plant response rating (0 to 100 scale, 0 is no effect, 100 is complete control); for pest or weed control at 500 g/ha: 500 g ai/ha, preemergence, visual injury rating about 10 d after treatment, 0 to 100 scale (0 no effect, 100 complete control), read-out: Foxtail, Giant plant response rating. Summed up: as §1

Test [4] relates to pigweed (Amaranthus retroflexus). Briefly: Test A preemergence. The note with it: Amaranthus retroflexus, pre-emergence, 240 h; for pest or weed control at 125 g/ha: 125 g ai/ha, Preemergence, visual injury rating after approximately 10 d, read-out: Pigweed plant response rating (0 to 100 scale, 0 is no effect, 100 is complete control); for pest or weed control at 500 g/ha: 500 g ai/ha, preemergence, visual injury rating about 10 d after treatment, 0 to 100 scale (0 no effect, 100 complete control), read-out: Pigweed plant response rating.

The test system of a further test is Kochia (Kochia scoparia). In words: Test A preemergence. The following applies: Bassia scoparia, pre-emergence, 240 h; for pest or weed control at 125 g/ha: 125 g ai/ha, Preemergence, visual injury rating after approximately 10 d, read-out: Kochia plant response rating (0 to 100 scale, 0 is no effect, 100 is complete control); for pest or weed control at 500 g/ha: 500 g ai/ha, preemergence, visual injury rating about 10 d after treatment, 0 to 100 scale (0 no effect, 100 complete control), read-out: Kochia plant response rating. Summed up:
as §1

Test [5] relates to ragweed (common ragweed, Ambrosia elatior). In words: Test A preemergence. The note with it: Ambrosia artemisiifolia, pre-emergence, 240 h; for pest or weed control at 125 g/ha: 125 g ai/ha, Preemergence, visual injury rating after approximately 10 d, read-out: Ragweed plant response rating (0 to 100 scale, 0 is no effect, 100 is complete control); for pest or weed control at 500 g/ha: 500 g ai/ha, preemergence, visual injury rating about 10 d after treatment, 0 to 100 scale (0 no effect, 100 complete control), read-out: Ragweed plant response rating. Summed up:
as §1

In test [6] the test system is Galium (catchweed bedstraw, Galium aparine). In words: Test A postemergence. The note with it: Galium, post-emergence, 240 h; for pest or weed control at 125 g/ha: 125 g ai/ha. In short, it runs like this:
as §1

Test [7] relates to barnyardgrass (Echinochloa crus-galli). In words: Test A postemergence. The note with it: Echinochloa crus-galli, post-emergence, 240 h, read-out: Plant response rating, Barnyardgrass; for pest or weed control at 125 g/ha: 125 g ai/ha, Postemergence, visual injury after approximately 10 d, 0 to 100 scale where 0 is no effect and 100 is complete control. In short, it runs like this: as §1

Test [8] has as its system ragweed (common ragweed, Ambrosia elatior). Briefly: Test A postemergence. The following applies: Ambrosia artemisiifolia, post-emergence, 240 h; for pest or weed control at 125 g/ha: 125 g ai/ha. Summed up: as §1
The subject of the next test is corn (Zea mays). In words: Test A postemergence. The following applies: Zea mays, post-emergence, 240 h; for Corn plant response rating (crop injury, 0 = no effect, 100 = complete kill) at 125 g/ha: 125 g ai/ha, Postemergence, visual injury after approximately 10 d, 0 to 100 scale where 0 is no effect and 100 is complete control. In short, it runs like this: as §1
Test [9] concerns barnyardgrass (Echinochloa crus-galli). Briefly: Test B flooded paddy test. The note with it: Echinochloa crus-galli, Flood, 250 g ai/ha, read-out: Barnyardgrass plant response rating. Summed up: (§2)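 Response scored visually against untreated controls, 0 = no effect and 100 = complete control, 13–15 d after treatment in the greenhouse. Compounds added to paddy water held 3 cm above soil surface. Treatment given at 2-leaf stage.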

In test [10] the test system is sedge, umbrella (small-flower umbrella sedge, Cyperus difformis). Briefly: Test B flooded paddy test. The following applies: Cyperus difformis, Flood, 250 g ai/ha, read-out: Sedge, Umbrella plant response rating. In short, it runs like this: as §2
The subject of test [11] is ducksalad (Heteranthera limosa). In words: Test B flooded paddy test. The following applies: Heteranthera limosa, Flood, 250 g ai/ha, read-out: Ducksalad plant response rating. In short, it runs like this: as §2
A further test concerns rice (Oryra sativa). In words: Test B flooded paddy test. The following applies: Oryza sativa, Flood, 250 g ai/ha, read-out: Rice plant response rating. In short, it runs like this:
as §2

Setting [12] is: scale of 0 to 100 where 0 is no effect and 100 is complete control.
The mark [13] stands for this setting: 500 g ai/ha, postemergence, visual injury, 0 to 100 scale (0 no effect, 100 complete control), approx. 10 d.
The mark [14] stands for this setting: 0 to 100 scale where 0 is no effect and 100 is complete control.

Structures are written as SMILES. Where two headings read alike, the source gives them in different places.

Drawing on patent US12077503B2, “Substituted cyclic amides and their use as herbicides” (FMC CORPORATION, priority 2015, dated 2024), this text covers pest or weed control and Corn plant response rating (crop injury, 0 = no effect, 100 = complete kill) for 2 compounds.

For the compound `CC(C)COc1cccc([C@H]2CNC(=O)[C@@H]2C(=O)Nc2cccc(F)c2F)c1` [Compound 965], the pest or weed control at 125 g/ha was found to be 70% in test [1]; 90% in test [2]; 90% in [3]; 0% in [4]; 0% in the test on Kochia (Kochia scoparia); 0% in [5]. The pest or weed control at 125 g/ha in [6] (Postemergence, visual injury after approximately 10 d, 0 to 100 scale where 0 is no effect and 100 is complete control, read-out: Plant response rating, Galium) is 40%; in test [7] it was 80%; in test [8] (Postemergence, visual injury after approximately 10 d, 0 to 100 scale where 0 is no effect and 100 is complete control, read-out: Plant response rating, Ragweed), 0%. Further, the pest or weed control at 500 g/ha in test [1] was found to be 90%; in test [2], 90%; in test [3], 90%; in [4], 0%; with Kochia (Kochia scoparia) it was 60%; in test [5] it was 0%. Also, the Corn plant response rating (crop injury, 0 = no effect, 100 = complete kill) at 125 g/ha in the test on corn (Zea mays) worked out at 30%. Besides, the pest or weed control at 250 g/ha in [9] (setting [12]) stood at 20%; in [10] (setting [12]) it was 0%; in test [11] (setting [12]), 85%; in the test on rice (Oryra sativa) (setting [12]) it was 0%.

For `CN1CC[C@H](c2ccccc2)[C@@H](C(=O)Nc2ccccc2F)C1=O` [Compound 1032], the pest or weed control at 125 g/ha in [1] amounted to 0%; in test [2], 20%; in test [3], 0%; in test [4] it was 0%; in the test on Kochia (Kochia scoparia), 0%; in test [5], 0%. Also, the pest or weed control at 125 g/ha in [6] (postemergence, visual injury on 0 to 100 scale (0 no effect, 100 complete control), approx. 10 d, read-out: Galium plant response rating) is 0%; in test [7] it was 0%; in test [8] (postemergence, visual injury on 0 to 100 scale (0 no effect, 100 complete control), approx. 10 d, read-out: Ragweed plant response rating), 0%. In addition, the pest or weed control at 500 g/ha amounted to 0% in test [1]; 70% in test [2]; 70% in test [3]; 0% in test [4]; 0% in the test with Kochia (Kochia scoparia); 0% in test [5]. In addition, the pest or weed control at 500 g/ha is 0% in test [6] (500 g ai/ha, postemergence, visual injury, 0 to 100 scale (0 no effect, 100 complete control), approx. 10 d, read-out: Plant response rating, Galium); 0% in test [7] (setting [13]); 0% in [8] (500 g ai/ha, postemergence, visual injury, 0 to 100 scale (0 no effect, 100 complete control), approx. 10 d, read-out: Plant response rating, Ragweed). Further, the Corn plant response rating (crop injury, 0 = no effect, 100 = complete kill) at 125 g/ha with corn (Zea mays) was 0%. The compound further returned a Corn plant response rating (crop injury, 0 = no effect, 100 = complete kill) at 500 g/ha in the test with corn (Zea mays) (setting [13]) of 0%. Besides, the pest or weed control at 250 g/ha came to 0% in test [9] (setting [14]), 0% in [10] (setting [14]), 20% in test [11] (setting [14]) and 0% with rice (Oryra sativa) (setting [14]).
